Like-named read-outs stand apart in the source and are kept apart here.
Assays:
[1] = biological target: T1, [V390I/Y410E/E274V]-CfEcR (Choristoneura fumiferana, UniProt O77240); type: cell-based; conditions: 3T3 Cells; for RMFI (relative maximum fold induction): relative to GS-E ligand
T1 construct: assay construct b835
Method: (§1) Cellular gene switch assays were performed by transiently transfecting the following constructs in mouse embryonic fibroblast cells (NIH3T3). The wild-type D, E and F domains from Choristoneura fumiferana EcR or its V390I/Y410E/E274V mutant were fused to GAL4-DBD and placed under the control of the CMV promoter in the pBIND vector (Promega Corporation, Madison, Wis., USA). The DEF domains of EcRs shown were amplified using primers designed based on 20-25 nt sequences at the 5′ and 3′ ends. Restriction enzyme sites EcoR I/BamH I and Xba I were added to 5′ and 3′ primers respectively. The PCR products were digested with appropriate restriction enzymes and cloned into pBIND vector. The EcR LBDs cloned into pBIND vector were verified by sequencing. A chimeric RXR from Homo sapiens RXRP and Locusta migratoria RXR, fused to VP16-AD and placed under the control of an SV40e promoter, was constructed as previously described (Kumar P & Katakam A in Gene Transfer, Friedmann T and Rossi J, eds, pp. 643-651 (2007), Cold Spring Harbor Laboratory Press, Cold Spring Harbor, N.Y.). The inducible luciferase reporter plasmid pFRLuc (Stratagene Cloning Systems, La Jolla, Calif., USA), contains five copies of the GAL4 response element and a synthetic minimal promoter.
(§2) NIH3T3 cells were maintained at 37′C and 5% CO2 in Dulbecco's modified Eagle's medium (DMEM) supplemented with 10% bovine calf serum, both obtained from Mediatech Inc., Manassas, Va. Cells were planted in a 96-well plate at a density of 2,500 cells/well in 50 μL of growth medium. The following day cells were first treated with 35 μL of serum-free DMEM containing dimethyl sulfoxide (DMSO; control) or a DMSO solution containing ligand. Cells were then transfected with 15 μl of serum-free DMEM containing 0.04 μg of EcR construct, 0.04 ug of RXR construct, and 0.16 μg of luciferase reporter construct per well, using SuperFect™ transfection reagent (Qiagen Inc., Valencia, Calif., USA) according to the manufacturer's instructions. Ligands were tested at 8 doses from 0.01-33 μM and the final DMSO concentration was 0.33% in both control and treatment wells. After a 48 hour post-treatment and transfection incubation, the cells were assayed for luciferase activity using the Bright-Glo™ Luciferase Assay System (Promega Corporation, Madison, Wis., USA) following the manufacturer's instructions. EC50 values were measured minimally in duplicate.
(§3) Luciferase reporter gene expression was measured 48 h after cell treatment using Bright-Glo™ Luciferase Assay System from Promega (E2650). Luminescence was detected at room temperature using a Dynex MLX microtiter plate luminometer.
(§4) Each assay was conducted in two separate wells, and the two values were averaged. Fold inductions were calculated by dividing relative light units (“RLU”) in ligand treated cells with RLU in DMSO treated cells. EC50s were calculated from dose response data using a three-parameter logistic model. Relative Max FI was determined as the maximum fold induction of the tested ligand (an embodiment of the invention) observed at any concentration relative to the maximum fold induction of GS™-E ligand (3,5-dimethyl-benzoic acid N-tert-butyl-N′-(2-ethyl-3-methoxy-benzoyl)-hydrazide) observed at any concentration.

[2] = biological target: wild-type Choristoneura fumiferana EcR (D, E and F domains) (Choristoneura fumiferana, UniProt O77240); type: cell-based; conditions: WT-CtEcR, 3T3 Cells; for RMFI (relative maximum fold induction): relative to GS-E ligand
Method: as §1, §2, §3, §4

CCCC(N(NC(=O)c1cccc(OC)c1C)C(=O)c1cc(OC)c(C)c(OC)c1)C(C)(C)C (racemic) [rac-51]
EC50 ([1]; rac, read-out: EC50): 15 nM
RMFI (relative maximum fold induction) ([1]; rac): 0.81
EC50 ([2]; rac, read-out: EC50): 80.2 nM
RMFI (relative maximum fold induction) ([2]; rac): 0.82

C=CCC(C1CCCCC1)N(NC(=O)c1cccc(OC)c1C)C(=O)c1cc(C)cc(C)c1 (racemic) [rac-60]
EC50 ([1]; rac, read-out: EC50): ~200 nM
RMFI (relative maximum fold induction) ([1]; rac): 0.73
EC50 ([2]; rac, read-out: EC50): ~1000 nM
RMFI (relative maximum fold induction) ([2]; rac): 0.49

C=CCC(C1CCCCC1)N(NC(=O)c1cccc(OC)c1C)C(=O)c1cc(OC)c(C)c(OC)c1 (racemic) [rac-61]
EC50 ([1]; rac, read-out: EC50): 521 nM
RMFI (relative maximum fold induction) ([1]; rac): 0.39
EC50 ([2]; rac, read-out: EC50): ~3300 nM
RMFI (relative maximum fold induction) ([2]; rac): 0.31

C=CCC(CCc1ccccc1)N(NC(=O)c1ccc(CC)cc1)C(=O)c1cc(C)cc(C)c1 (racemic) [rac-62]
EC50 ([1]; rac, read-out: EC50): 2110 nM
RMFI (relative maximum fold induction) ([1]; rac): 0.67
EC50 ([2]; rac, read-out: EC50): ~5000 nM
RMFI (relative maximum fold induction) ([2]; rac): 0.06

C=CC[C@@H](N(NC(=O)OCc1ccccc1)C(=O)c1cc(C)cc(C)c1)C(C)(C)C [Example 1.5, (R)—N′-(1-tert-butyl-but-3-enyl)-N′-(3,5-dimethyl-benzoyl)-hydrazinecarboxylic acid benzyl ester]
EC50 ([1]; R): ~2000 nM
RMFI (relative maximum fold induction) ([1]; R): 0.36
EC50 ([2]; R): > 10000 nM
RMFI (relative maximum fold induction) ([2]; R): 0.01

CCC[C@@H](N(NC(=O)c1ccccc1OC)C(=O)c1cc(C)cc(C)c1)C(C)(C)C [Example 4, (R)-3,5-Dimethyl-benzoic acid N-(1-tert-butyl-butyl)-N′-(2-meihoxy-benzoyl)-hydrazide]
EC50 ([1]; R): 99 nM
RMFI (relative maximum fold induction) ([1]; R): 0.52
EC50 ([2]; R): 993 nM
RMFI (relative maximum fold induction) ([2]; R): 0.38

CCC[C@@H](N(NC(=O)c1cc(OC)c(C)c(OC)c1)C(=O)c1cc(C)cc(C)c1)C(C)(C)C [Example 19, (R)-3,5-Dimethyl-benzoic acid N-(1-tert-butyl-butyl)-N′-(3,5-dimethoxy-4-methyl-benzoyl)-hydrazide]
EC50 ([1]; R): ~2000 nM
RMFI (relative maximum fold induction) ([1]; R): 0.37
EC50 ([2]; R): ~5000 nM
RMFI (relative maximum fold induction) ([2]; R): 0.09

CCC[C@@H](N(NC(=O)c1ccc2c(c1C)OCO2)C(=O)c1cc(C)cc(C)c1)C(C)(C)C [Example 20, (R)-3,5-Dimethyl-benzoic acid N-(1-tert-butyl-butyl)-N′-(4-methyl-benzo[1,3]dioxole-5-carbonyl)-hydrazide]
EC50 ([1]; R): 0.26 nM
RMFI (relative maximum fold induction) ([1]; R): 1.01
EC50 ([2]; R): 7.6 nM
RMFI (relative maximum fold induction) ([2]; R): 1.02

CCC[C@@H](N(NC(=O)c1cccs1)C(=O)c1cc(C)cc(C)c1)C(C)(C)C [Example 25, (R)-3,5-Dimethyl-benzoic acid N-(1-tert-butyl-butyl)-N′-(thiophene-2-carbonyl)-hydrazide]
EC50 ([1]; R): ~20 nM
RMFI (relative maximum fold induction) ([1]; R): 0.72
EC50 ([2]; R): 432 nM
RMFI (relative maximum fold induction) ([2]; R): 0.42

CCC[C@@H](N(NC(=O)c1cc(C)oc1C)C(=O)c1cc(C)cc(C)c1)C(C)(C)C [Example 26, (R)-3,5-Dimethyl-benzoic acid N-(1-tert-butyl-butyl)-N′-(2,5-dimethyl-furan-3-carbonyl)-hydrazide]
EC50 ([1]; R): 99.4 nM
RMFI (relative maximum fold induction) ([1]; R): 0.95
EC50 ([2]; R): ~1000 nM
RMFI (relative maximum fold induction) ([2]; R): 1.16

CCC[C@@H](N(NC(=O)c1cccnc1Cl)C(=O)c1cc(C)cc(C)c1)C(C)(C)C [Example 27, (R)-3,5-Dimethyl-benzoic acid N-(1-tert-butyl-butyl)-N′-(2-chloro-pyridine-3-carbonyl)-hydrazide]
EC50 ([1]; R): 7 nM
RMFI (relative maximum fold induction) ([1]; R): 0.73
EC50 ([2]; R): 95.2 nM
RMFI (relative maximum fold induction) ([2]; R): 0.70

CCC[C@@H](N(NC(=O)c1ccc(Cl)nc1)C(=O)c1cc(C)cc(C)c1)C(C)(C)C [Example 28, (R)-3,5-Dimethyl-benzoic acid N-(1-tert-butyl-butyl)-N′-(6-chloro-pyridine-3-carbonyl)-hydrazide]
EC50 ([1]; R): ~20 nM
RMFI (relative maximum fold induction) ([1]; R): 0.78
EC50 ([2]; R): 243 nM
RMFI (relative maximum fold induction) ([2]; R): 0.38

CCC[C@H](N(NC(=O)c1ccccc1)C(=O)c1cc(C)cc(C)c1)C(C)(C)C [Example 32]
EC50 ([1]; S): 267 nM
RMFI (relative maximum fold induction) ([1]; S): 0.38
EC50 ([2]; S): ~3300 nM
RMFI (relative maximum fold induction) ([2]; S): 0.19

CCC[C@H](N(NC(=O)c1ccccc1C)C(=O)c1cc(C)cc(C)c1)C(C)(C)C [Example 33, (S)-3,5-Dimethyl-benzoic acid N-(1-tert-butyl-butyl)-N′-(2-methyl-benzoyl)-hydrazide]
EC50 ([1]; S): ~400 nM
RMFI (relative maximum fold induction) ([1]; S): 0.48
EC50 ([2]; S): ~3300 nM
RMFI (relative maximum fold induction) ([2]; S): 0.20

CCC[C@H](N(NC(=O)c1ccccc1F)C(=O)c1cc(C)cc(C)c1)C(C)(C)C [Example 34, (S)-3,5-Dimethyl-benzoic acid N-(1-tert-butyl-butyl)-N′-(2-fluoro-benzoyl)-hydrazide]
EC50 ([1]; S): 86 nM
RMFI (relative maximum fold induction) ([1]; S): 0.64
EC50 ([2]; S): 529 nM
RMFI (relative maximum fold induction) ([2]; S): 0.41

CCC[C@H](N(NC(=O)c1ccccc1Cl)C(=O)c1cc(C)cc(C)c1)C(C)(C)C [Example 35, (S)-3,5-Dimethyl-benzoic acid N-(1-tert-butyl-butyl)-N′-(2-chloro-benzoyl)-hydrazide]
EC50 ([1]; S): ~20 nM
RMFI (relative maximum fold induction) ([1]; S): 0.77
EC50 ([2]; S): ~1000 nM
RMFI (relative maximum fold induction) ([2]; S): 0.44

CCC[C@H](N(NC(=O)c1ccccc1Br)C(=O)c1cc(C)cc(C)c1)C(C)(C)C [Example 36, (S)-3,5-Dimethyl-benzoic acid N′-(2-bromo-benzoyl)-N-(1-tert-butyl-butyl)-hydrazide]
EC50 ([1]; S): 433 nM
RMFI (relative maximum fold induction) ([1]; S): 0.36
EC50 ([2]; S): ~3300 nM
RMFI (relative maximum fold induction) ([2]; S): 0.11

CCC[C@H](N(NC(=O)c1cccc(C)c1)C(=O)c1cc(C)cc(C)c1)C(C)(C)C [Example 37, (S)-3,5-Dimethyl-benzoic acid N-(1-tert-butyl-butyl)-N′-(3-methyl-benzoyl)-hydrazide]
EC50 ([1]; S): 292 nM
RMFI (relative maximum fold induction) ([1]; S): 0.47
EC50 ([2]; S): ~3300 nM
RMFI (relative maximum fold induction) ([2]; S): 0.22

CCC[C@H](N(NC(=O)c1ccc(C)cc1)C(=O)c1cc(C)cc(C)c1)C(C)(C)C [Example 38, (S)-3,5-Dimethyl-benzoic acid N-(1-tert-butyl-butyl)-N′-(4-methyl-benzoyl)-hydrazide]
EC50 ([1]; S): 341 nM
RMFI (relative maximum fold induction) ([1]; S): 0.44
EC50 ([2]; S): 2170 nM
RMFI (relative maximum fold induction) ([2]; S): 0.25

CCC[C@H](N(NC(=O)c1ccc(CC)cc1)C(=O)c1cc(C)cc(C)c1)C(C)(C)C [Example 39, (S)-3,5-Dimethyl-benzoic acid N-(1-tert-butyl-butyl)-N′-(4-ethyl-benzoyl)-hydrazide]
EC50 ([1]; S): ~20 nM
RMFI (relative maximum fold induction) ([1]; S): 0.70
EC50 ([2]; S): 418 nM
RMFI (relative maximum fold induction) ([2]; S): 0.29

CCC[C@H](N(NC(=O)c1c(F)cccc1F)C(=O)c1cc(C)cc(C)c1)C(C)(C)C [Example 40, (S)-3,5-Dimethyl-benzoic acid N-(1-tert-butyl-butyl)-N′-(2,6-difluoro-benzoyl)-hydrazide]
EC50 ([1]; S): ~20 nM
RMFI (relative maximum fold induction) ([1]; S): 0.69
EC50 ([2]; S): ~1000 nM
RMFI (relative maximum fold induction) ([2]; S): 0.39
